Test results reported in patent US7414042B2, “Method and composition for selectively inhibiting melanoma” (The Board of Trustees of The University of Illinois, priority 1995, dated 2008).
Converted amounts (≈) assume the structure as drawn. Read-outs that look alike come from different tables or passages of the source.

Columns and labels:
[1] = test system: KB (human oral epidermoid carcinoma); test: Cytotoxicity against cultured human cancer cells (SRB); assay type: cell-based; settings: for ED50 (Std. Dev.) KB: derivatives, Tables 2-6; for IC50: Homo sapiens, 72 h, read-out: ED50 KB
Experimental: (§1) The plates were incubated for three days. […] Dose response studies were performed to generate ED50 values.

[2] = test system: MEL-2 (melanoma); test: Cytotoxicity against cultured human melanoma cells (SRB); assay type: cell-based; settings: for ED50 (Std. Dev.) MEL-2: derivatives, Tables 2-6; for IC50: Homo sapiens, MEL2, 72 h, read-out: ED50 MEL-2
Experimental: as §1

[3] = test system: LOX melanoma cell line; test: Cytotoxicity of betulinic acid derivatives; assay type: cell-based, human; settings: Tables 2-6
Experimental: as §1

[4] = test system: human melanoma and nonmelanoma cancer cell lines
[5] = test system: A431 (squamous cells); test: Cytotoxicity against cultured human cancer cells (SRB); assay type: cell-based; settings: for IC50: Homo sapiens, A-431, 72 h, read-out: ED50 A431
Experimental: as §1

[6] = test system: BC-1 (breast); test: as above; assay type: cell-based; settings: for IC50: Homo sapiens, 72 h, read-out: ED50 BC-1
Experimental: as §1

[7] = test system: COL-2 (colon); test: as above; assay type: cell-based; settings: for IC50: Homo sapiens, Col2, 72 h, read-out: ED50 COL-2
Experimental: as §1

[8] = test system: HT-1080 (sarcoma); test: as above; assay type: cell-based; settings: three days incubation; for IC50: Homo sapiens, HT-1080, 72 h, read-out: ED50 HT-1080
Experimental: as §1

[9] = test system: LNCaP (prostate); test: as above; assay type: cell-based; settings: for IC50: Homo sapiens, LNCaP, 72 h, read-out: ED50 LNCaP
Experimental: as §1

[10] = test system: LU-1 (lung); test: as above; assay type: cell-based; settings: three days incubation; for IC50: Homo sapiens, 72 h, read-out: ED50 LU-1
Experimental: as §1

[11] = test system: U373 (glioma); test: as above; assay type: cell-based; settings: for IC50: Homo sapiens, U373 MG, 72 h, read-out: ED50 U373
Experimental: as §1

[12] = test system: ZR-75-1 (breast); test: as above; assay type: cell-based; settings: for IC50: Homo sapiens, ZR-75-1, 72 h, read-out: ED50 ZR 75-1
Experimental: as §1

[13] = test system: human melanoma and nonmelanoma cancer cell lines; test: Cytotoxicity profile across the panel of human cancer cell lines; settings: Table 1 panel
[14] = three days incubation, SRB, Table 1 and text
[15] = three days incubation, SRB, Table 1

**Q.** For `C=C(C)[C@@H]1CC[C@]2(CO)CC[C@]3(C)[C@H](CC[C@@H]4[C@@]5(C)CC[C@H](O)C(C)(C)[C@@H]5CC[C@]43C)[C@@H]12` [Compound 12, lup-20(29)-ene-3β,28-diol], which “ED50 (Std. Dev.) KB” value [1] is on record?
**A.** The value was over 20 µg/mL.

**Q.** What about the “ED50 (Std. Dev.) MEL-2” value [2] of the same molecule?
**A.** Its value is over 20 µg/mL.

**Q.** And the “ED50 (Std. Dev.) LOX” value [3]?
**A.** Its value is over 20 µg/mL.

**Q.** For `C=C(C)C1CCC2(C(=O)O)CCC3(C)C(CCC4C5(C)CCC(=NOC)C(C)(C)C5CCC43C)C12` (stereo not shown) [Compound 13], which “ED50 (Std. Dev.) KB” value [1] is on record?
**A.** The value was 4.3 µg/mL (≈ 8.89 µM).

**Q.** And the “ED50 (Std. Dev.) MEL-2” value [2]?
**A.** Its value is 8.3 µg/mL (≈ 17.2 µM).

**Q.** And the “ED50 (Std. Dev.) LOX” value [3]?
**A.** The value was over 20 µg/mL.

**Q.** And the “cytotoxicity and selectivity compared with betulinic acid or the corresponding analog” value [4]?
**A.** Its value is “decrease in selective cytotoxicity”.

**Q.** What does the source list for `C=C(C)[C@@H]1CC[C@]2(C(=O)OC)CC[C@]3(C)[C@H](CC[C@@H]4[C@@]5(C)CC[C@H](O)C(C)(C)[C@@H]5CC[C@]43C)[C@@H]12` [Compound 14, Methyl betulinate]?
**A.** ED50 (Std. Dev.) KB [1]: 11.8 µg/mL (≈ 25.1 µM); ED50 (Std. Dev.) MEL-2 [2]: 8.3 µg/mL (≈ 17.6 µM); ED50 (Std. Dev.) LOX [3]: 12.5 µg/mL (≈ 26.6 µM)

**Q.** Which results are given for `C=C(C)[C@@H]1CC[C@]2(C)CC[C@]3(C)[C@H](CC[C@@H]4[C@@]5(C)CC[C@H](O)C(C)(C)[C@@H]5CC[C@]43C)[C@@H]12` [Compound 15, Lupeol]?
**A.** ED50 (Std. Dev.) KB [1]: >20 µg/mL; ED50 (Std. Dev.) MEL-2 [2]: 17.6 µg/mL (≈ 41.2 µM); ED50 (Std. Dev.) LOX [3]: 15.6 µg/mL (≈ 36.6 µM)

**Q.** `C=C(C)[C@@H]1CC[C@]2(C)CC[C@]3(C)[C@H](CC[C@@H]4[C@@]5(C)CC[C@H](OC(=O)c6ccccc6)C(C)(C)[C@@H]5CC[C@]43C)[C@@H]12` [Compound 16, Lupeol benzoate] was tested. Which “ED50 (Std. Dev.) KB” value [1] did it give?
**A.** Its value is over 20 µg/mL.

**Q.** And the “ED50 (Std. Dev.) MEL-2” value [2]?
**A.** The value was over 20 µg/mL.

**Q.** And the “ED50 (Std. Dev.) LOX” value [3]?
**A.** The value was over 20 µg/mL.

**Q.** What does the source list for `COC(=O)C[C@](O)(CCCC(C)(C)O)C(=O)O[C@@H]1C(OC)=C[C@]23CCCN2CCc2cc4c(cc2[C@H]13)OCO4` [Homoharringtonine]?
**A.** IC50 ([5]; three days incubation, SRB): 0.02 µg/mL (≈ 0.0367 µM); IC50 ([6]; three days incubation, SRB): 0.03 µg/mL (≈ 0.055 µM); IC50 ([7]; three days incubation, SRB): 0.1 µg/mL (≈ 0.183 µM); IC50 [8]: 0.01 µg/mL (≈ 0.0183 µM); IC50 ([9]; three days incubation, SRB): 0.03 µg/mL (≈ 0.055 µM); IC50 [10]: 0.03 µg/mL (≈ 0.055 µM); IC50 ([11]; three days incubation, SRB): 0.2 µg/mL (≈ 0.367 µM); IC50 ([12]; three days incubation, SRB): 0.06 µg/mL (≈ 0.11 µM); IC50 [2, 14]: 0.04 µg/mL (≈ 0.0733 µM); cytotoxic activity profile, cell-type selectivity [13]: relatively intense, nonselective cytotoxic activity

**Q.** With `CO[C@H](C(=O)[C@@H](O)[C@@H](C)O)[C@@H]1Cc2cc3cc(O[C@H]4C[C@@H](O[C@H]5C[C@@H](O)[C@H](O)[C@@H](C)O5)[C@H](O)[C@@H](C)O4)c(C)c(O)c3c(O)c2C(=O)[C@H]1O[C@H]1C[C@@H](O[C@H]2C[C@@H](O[C@H]3C[C@](C)(O)[C@H](O)[C@@H](C)O3)[C@@H](O)[C@@H](C)O2)[C@H](O)[C@@H](C)O1` [Mithramycin A] as the molecule, how does the “ED50 A431” value ([5]; three days incubation, SRB) read?
**A.** Its value is 0.09 µg/mL (≈ 0.0829 µM).

**Q.** What about the “ED50 BC-1” value ([6]; three days incubation, SRB) of the same molecule?
**A.** The value was 0.3 µg/mL (≈ 0.276 µM).

**Q.** And the “ED50 COL-2” value ([7]; three days incubation, SRB)?
**A.** Its value is 0.06 µg/mL (≈ 0.0553 µM).

**Q.** What about the “ED50 HT-1080” value [8] of the same molecule?
**A.** Its value is 1.5 µg/mL (≈ 1.38 µM).

**Q.** What about the “ED50 KB” value [1, 15] of the same molecule?
**A.** The value was 0.09 µg/mL (≈ 0.0829 µM).

**Q.** What about the “ED50 LNCaP” value ([9]; three days incubation, SRB) of the same molecule?
**A.** Its value is 0.05 µg/mL (≈ 0.0461 µM).

**Q.** What about the “ED50 LU-1” value [10] of the same molecule?
**A.** The value was 0.2 µg/mL (≈ 0.184 µM).

**Q.** And the “ED50 U373” value ([11]; three days incubation, SRB)?
**A.** The value was 0.04 µg/mL (≈ 0.0369 µM).

**Q.** And the “ED50 ZR 75-1” value ([12]; three days incubation, SRB)?
**A.** The value was 0.2 µg/mL (≈ 0.184 µM).

**Q.** And the “ED50 MEL-2” value [2, 14]?
**A.** Its value is 1.2 µg/mL (≈ 1.11 µM).

**Q.** What about the “cytotoxic activity profile, cell-type selectivity” value [13] of the same molecule?
**A.** The value was “relatively intense, nonselective cytotoxic activity”.

**Q.** How did the IC50 [5] turn out when `COc1cc([C@@H]2c3cc4c(cc3[C@H](O)[C@H]3COC(=O)[C@H]23)OCO4)cc(OC)c1OC` [Podophyllotoxin] was run?
**A.** Its IC50 is 0.03 µg/mL (≈ 0.0724 µM).

**Q.** And the IC50 [6]?
**A.** Its IC50 is 0.03 µg/mL (≈ 0.0724 µM).

**Q.** What about the IC50 [7] of the same molecule?
**A.** The IC50 was 0.005 µg/mL (≈ 0.0121 µM).

**Q.** And the IC50 [1, 15]?
**A.** The IC50 was 0.08 µg/mL (≈ 0.193 µM).

**Q.** And the IC50 [9]?
**A.** The IC50 was 0.04 µg/mL (≈ 0.0965 µM).

**Q.** And the IC50 [11]?
**A.** Its IC50 is 0.004 µg/mL (≈ 0.00965 µM).

**Q.** And the IC50 [12]?
**A.** Its IC50 is 0.4 µg/mL (≈ 0.965 µM).

**Q.** And the IC50 [2, 14]?
**A.** Its IC50 is 0.003 µg/mL (≈ 0.00724 µM).

**Q.** And the “cytotoxic activity profile, cell-type selectivity” value [13]?
**A.** The value was “relatively intense, nonselective cytotoxic activity”.

**Q.** `CC(=O)O[C@H]1C(=O)[C@@]2(C)[C@H]([C@H](OC(=O)c3ccccc3)[C@]3(O)C[C@H](OC(=O)[C@H](O)[C@@H](NC(=O)c4ccccc4)c4ccccc4)C(C)=C1C3(C)C)[C@]1(OC(C)=O)CO[C@@H]1C[C@@H]2O` [Taxol, paclitaxel] was tested. Which IC50 ([6]; three days incubation, SRB) did it give?
**A.** Its IC50 is 0.02 µg/mL (≈ 0.0234 µM).

**Q.** And the IC50 ([7]; three days incubation, SRB)?
**A.** The IC50 was 0.02 µg/mL (≈ 0.0234 µM).

**Q.** And the IC50 [1, 15]?
**A.** Its IC50 is 0.02 µg/mL (≈ 0.0234 µM).

**Q.** What about the IC50 ([9]; three days incubation, SRB) of the same molecule?
**A.** Its IC50 is 0.02 µg/mL (≈ 0.0234 µM).

**Q.** And the IC50 ([11]; three days incubation, SRB)?
**A.** The IC50 was 0.008 µg/mL (≈ 0.00937 µM).

**Q.** And the IC50 ([12]; three days incubation, SRB)?
**A.** Its IC50 is 0.02 µg/mL (≈ 0.0234 µM).

**Q.** What about the IC50 [2, 14] of the same molecule?
**A.** The IC50 was 0.06 µg/mL (≈ 0.0703 µM).

**Q.** And the “cytotoxic activity profile, cell-type selectivity” value [13]?
**A.** Its value is “relatively intense, nonselective cytotoxic activity”.

**Q.** `CC[C@]1(O)C[C@H]2CN(CCc3c([nH]c4ccccc34)[C@@](C(=O)OC)(c3cc4c(cc3OC)N(C=O)[C@H]3[C@@](O)(C(=O)OC)[C@H](OC(C)=O)[C@]5(CC)C=CCN6CC[C@]43[C@@H]65)C2)C1` [Vincristine] was tested. Which IC50 ([5]; three days incubation, SRB) did it give?
**A.** The IC50 was 0.01 µg/mL (≈ 0.0121 µM).

**Q.** And the IC50 ([6]; three days incubation, SRB)?
**A.** The IC50 was 0.01 µg/mL (≈ 0.0121 µM).

**Q.** What about the IC50 ([7]; three days incubation, SRB) of the same molecule?
**A.** The IC50 was 0.02 µg/mL (≈ 0.0242 µM).

**Q.** And the IC50 [8]?
**A.** Its IC50 is 0.02 µg/mL (≈ 0.0242 µM).

**Q.** And the IC50 ([9]; three days incubation, SRB)?
**A.** Its IC50 is 0.1 µg/mL (≈ 0.121 µM).

**Q.** And the IC50 [10]?
**A.** Its IC50 is 0.05 µg/mL (≈ 0.0606 µM).

**Q.** What about the IC50 ([11]; three days incubation, SRB) of the same molecule?
**A.** The IC50 was 0.06 µg/mL (≈ 0.0727 µM).

**Q.** And the IC50 ([12]; three days incubation, SRB)?
**A.** Its IC50 is 0.4 µg/mL (≈ 0.485 µM).

**Q.** And the IC50 [2, 14]?
**A.** Its IC50 is 0.02 µg/mL (≈ 0.0242 µM).

**Q.** What about the “cytotoxic activity profile, cell-type selectivity” value [13] of the same molecule?
**A.** The value was “relatively intense, nonselective cytotoxic activity”.
